Earlier results, collected in US12390507B1, “Method to provide consistent product batches active components for alkaloids of kratom plants” (priority 2021, dated 2025).

Experiments:
α2-adrenergic receptor = details: α2 versus α1
α1-adrenergic receptor = details: α1 versus α2 adrenergic receptor antagonist

CC[C@@H]1CN2CCc3c([nH]c4cccc(O)c34)[C@@H]2C[C@@H]1/C(=C\OC)C(=O)OC [9-Hydroxycorynantheidine]
maximum inhibition of electrically stimulated guinea-pig ileum contraction (opioid receptors; compared with mitragynine): weaker than that of mitragynine | effect on electrically stimulated guinea-pig ileum contraction (opioid receptors; one study, quoted): inhibited | effect of naloxone on the inhibition of guinea-pig ileum contraction (opioid receptors; with naloxone): antagonized by naloxone

COC(=O)[C@H]1[C@H]2C[C@H]3c4[nH]c5ccccc5c4CCN3C[C@H]2CC[C@@H]1O [rauwolscine]
higher affinity for the α2-adrenergic receptor over the α1-adrenergic (α2-adrenergic receptor): 30 ×

COC(=O)[C@@H]1[C@H]2C[C@H]3c4[nH]c5ccccc5c4CCN3C[C@@H]2CC[C@@H]1O [yohimbine]
higher affinity for the α2-adrenergic receptor over the α1-adrenergic (α2-adrenergic receptor): 30 ×

Corynantheidine
greater affinity for the α1-adrenergic receptor (over α2-adrenergic receptor) (α1-adrenergic receptor): 10 ×
